Assay results as given in patent publication US12077503B2, “Substituted cyclic amides and their use as herbicides” (FMC CORPORATION, priority 2015, dated 2024).

Assays:
Format in all cases: in vivo
Kochia (Kochia scoparia) [1] = assay: Test A preemergence; details: Bassia scoparia, pre-emergence, 240 h
Method in brief: (§1)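 In a loam soil and sand blend, planted seeds got a preemergence directed soil spray, and young plants at the one- to two-leaf stage, 2–10 cm high, got a postemergence application; ~10 d greenhouse hold; injury rated visually, 0 = none, 100 = complete control.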

[2] = test system: barnyardgrass (Echinochloa crus-galli); assay: Test A preemergence; details: Echinochloa crus-galli, pre-emergence, 240 h
Method in brief: as §1

[3] = test system: giant foxtail (Setaria faberii); assay: Test A preemergence; details: Setaria faberi, pre-emergence, 240 h
Method in brief: as §1

[4] = test system: pigweed (Amaranthus retroflexus); assay: Test A preemergence; details: Amaranthus retroflexus, pre-emergence, 240 h
[5] = test system: ragweed (common ragweed, Ambrosia elatior); assay: Test A preemergence; details: Ambrosia artemisiifolia, pre-emergence, 240 h
Method in brief: as §1

[6] = test system: ryegrass, Italian (Italian ryegrass, Lolium multiflorum); assay: Test A preemergence; details: Lolium multiflorum, pre-emergence, 240 h
Method in brief: as §1

[7] = test system: Galium (catchweed bedstraw, Galium aparine); assay: Test A postemergence; details: Galium, post-emergence, 240 h, 125 g ai/ha, Postemergence; visual injury after approximately 10 d; 0 to 100 scale where 0 is no effect and 100 is complete control; read-out: Plant response rating, Galium
Method in brief: as §1

Kochia (Kochia scoparia) [8] = assay: Test A postemergence; details: Bassia scoparia, post-emergence, 240 h, 125 g ai/ha, Postemergence; visual injury after approximately 10 d; 0 to 100 scale where 0 is no effect and 100 is complete control; read-out: Plant response rating, Kochia
Method in brief: as §1

[9] = test system: barnyardgrass (Echinochloa crus-galli); assay: Test A postemergence; details: Echinochloa crus-galli, post-emergence, 240 h, 125 g ai/ha, Postemergence; visual injury after approximately 10 d; 0 to 100 scale where 0 is no effect and 100 is complete control; read-out: Plant response rating, Barnyardgrass
Method in brief: as §1

[10] = test system: blackgrass (Alopecurus myosuroides); assay: Test A postemergence; details: Alopecurus myosuroides, post-emergence, 240 h, 125 g ai/ha, Postemergence; visual injury after approximately 10 d; 0 to 100 scale where 0 is no effect and 100 is complete control; read-out: Plant response rating, Blackgrass
Method in brief: as §1

corn (Zea mays) = assay: Test A postemergence; details: Zea mays, post-emergence, 240 h, 125 g ai/ha, Postemergence; visual injury after approximately 10 d; 0 to 100 scale where 0 is no effect and 100 is complete control
Method in brief: as §1

[11] = test system: giant foxtail (Setaria faberii); assay: Test A postemergence; details: Setaria faberi, post-emergence, 240 h, 125 g ai/ha, Postemergence; visual injury after approximately 10 d; 0 to 100 scale where 0 is no effect and 100 is complete control; read-out: Plant response rating, Foxtail, Giant
Method in brief: as §1

[12] = test system: pigweed (Amaranthus retroflexus); assay: Test A postemergence; details: Amaranthus retroflexus, post-emergence, 240 h, 125 g ai/ha, Postemergence; visual injury after approximately 10 d; 0 to 100 scale where 0 is no effect and 100 is complete control; read-out: Plant response rating, Pigweed
Method in brief: as §1

[13] = test system: ragweed (common ragweed, Ambrosia elatior); assay: Test A postemergence; details: Ambrosia artemisiifolia, post-emergence, 240 h, 125 g ai/ha, Postemergence; visual injury after approximately 10 d; 0 to 100 scale where 0 is no effect and 100 is complete control; read-out: Plant response rating, Ragweed
Method in brief: as §1

[14] = test system: ryegrass, Italian (Italian ryegrass, Lolium multiflorum); assay: Test A postemergence; details: Lolium multiflorum, post-emergence, 240 h, 125 g ai/ha, Postemergence; visual injury after approximately 10 d; 0 to 100 scale where 0 is no effect and 100 is complete control; read-out: Plant response rating, Ryegrass, Italian
Method in brief: as §1

[15] = test system: wheat (Triticum aestivum); assay: Test A postemergence; details: Triticum aestivum, post-emergence, 240 h, 125 g ai/ha, Postemergence; visual injury after approximately 10 d; 0 to 100 scale where 0 is no effect and 100 is complete control; read-out: Plant response rating, Wheat
Method in brief: as §1

[16] = test system: barnyardgrass (Echinochloa crus-galli); assay: Test B flooded paddy test; details: Echinochloa crus-galli, Flood, 250 g ai/ha; scale of 0 to 100 where 0 is no effect and 100 is complete control; read-out: Barnyardgrass plant response rating
Method in brief: (§2)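 2-leaf plants; pots flooded 3 cm over soil; cpd added to paddy water; depth held; greenhouse 13–15 d; visual rating vs controls, 0 = no effect, 100 = complete control.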

[17] = test system: ducksalad (Heteranthera limosa); assay: Test B flooded paddy test; details: Heteranthera limosa, Flood, 250 g ai/ha; scale of 0 to 100 where 0 is no effect and 100 is complete control; read-out: Ducksalad plant response rating
Method in brief: as §2

rice (Oryra sativa) = assay: Test B flooded paddy test; details: Oryza sativa, Flood, 250 g ai/ha; scale of 0 to 100 where 0 is no effect and 100 is complete control; read-out: Rice plant response rating
Method in brief: as §2

[18] = test system: sedge, umbrella (small-flower umbrella sedge, Cyperus difformis); assay: Test B flooded paddy test; details: Cyperus difformis, 250 g ai/ha, Flood; 0 to 100 scale where 0 is no effect and 100 is complete control; read-out: Sedge, Umbrella plant response rating
Method in brief: as §2

## Cc1c(F)cccc1NC(=O)[C@H]1C(=O)N(C)C[C@@H]1c1cc(F)cc(C(F)(F)F)c1 [Compound 994]
Kochia (Kochia scoparia) [1]; 125 g ai/ha, Preemergence, visual injury rating after approximately 10 d, read-out: Kochia plant response rating (0 to 100 scale, 0 is no effect, 100 is complete control)
  pest or weed control at 125 g/ha: 40%
Kochia (Kochia scoparia) [1]; 500 g ai/ha, preemergence, visual injury rating about 10 d after treatment, 0 to 100 scale (0 no effect, 100 complete control), read-out: Kochia plant response rating
  pest or weed control at 500 g/ha: 60%
[2]; 125 g ai/ha, Preemergence, visual injury rating after approximately 10 d, read-out: Barnyardgrass plant response rating (0 to 100 scale, 0 is no effect, 100 is complete control)
  pest or weed control at 125 g/ha: 90%
[2]; 500 g ai/ha, preemergence, visual injury rating about 10 d after treatment, 0 to 100 scale (0 no effect, 100 complete control), read-out: Barnyardgrass plant response rating
  pest or weed control at 500 g/ha: 100%
[3]; 125 g ai/ha, Preemergence, visual injury rating after approximately 10 d, read-out: Foxtail, Giant plant response rating (0 to 100 scale, 0 is no effect, 100 is complete control)
  pest or weed control at 125 g/ha: 100%
[3]; 500 g ai/ha, preemergence, visual injury rating about 10 d after treatment, 0 to 100 scale (0 no effect, 100 complete control), read-out: Foxtail, Giant plant response rating
  pest or weed control at 500 g/ha: 100%
[4]; 125 g ai/ha, Preemergence, visual injury rating after approximately 10 d, read-out: Pigweed plant response rating (0 to 100 scale, 0 is no effect, 100 is complete control)
  pest or weed control at 125 g/ha: 30%
[4]; 500 g ai/ha, preemergence, visual injury rating about 10 d after treatment, 0 to 100 scale (0 no effect, 100 complete control), read-out: Pigweed plant response rating
  pest or weed control at 500 g/ha: 70%
[5]; 125 g ai/ha, Preemergence, visual injury rating after approximately 10 d, read-out: Ragweed plant response rating (0 to 100 scale, 0 is no effect, 100 is complete control)
  pest or weed control at 125 g/ha: 0%
[5]; 500 g ai/ha, preemergence, visual injury rating about 10 d after treatment, 0 to 100 scale (0 no effect, 100 complete control), read-out: Ragweed plant response rating
  pest or weed control at 500 g/ha: 0%
[6]; 125 g ai/ha, Preemergence, visual injury rating after approximately 10 d, read-out: Ryegrass, Italian plant response rating (0 to 100 scale, 0 is no effect, 100 is complete control)
  pest or weed control at 125 g/ha: 70%
[6]; 500 g ai/ha, preemergence, visual injury rating about 10 d after treatment, 0 to 100 scale (0 no effect, 100 complete control), read-out: Ryegrass, Italian plant response rating
  pest or weed control at 500 g/ha: 100%
[7]
  pest or weed control at 125 g/ha: 50%
Kochia (Kochia scoparia) [8]
  pest or weed control at 125 g/ha: 40%
[9]
  pest or weed control at 125 g/ha: 100%
[10]
  pest or weed control at 125 g/ha: 60%
Corn (Zea mays)
  Corn plant response rating (crop injury, 0 = no effect, 100 = complete kill) at 125 g/ha: 70%
[11]
  pest or weed control at 125 g/ha: 90%
[12]
  pest or weed control at 125 g/ha: 0%
[13]
  pest or weed control at 125 g/ha: 20%
[14]
  pest or weed control at 125 g/ha: 70%
[15]
  plant injury at 125 g/ha: 70%
[16]
  pest or weed control at 250 g/ha: 75%
[17]
  pest or weed control at 250 g/ha: 100%
Rice (Oryra sativa)
  pest or weed control at 250 g/ha: 20%
[18]
  pest or weed control at 250 g/ha: 0%
